Test systems include Hs-578T; U-251; K562; OVCAR-3; UO-31; HOP-62; HL-60; RPMI-8226; EKVX; TK-10; NCI-H226; RXF 393; HT-29; UACC-257; M14; OVCAR-5; LOX IMVI; SK-MEL-2; IGROV-1; SK-OV-3.
Holding throughout (assay): inhibition of tumour cell growth, NCI panel, 48 h

Molecules are shown by their SMILES.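 Test compounds were applied to cells in 96-well plates for 48 hours at 5 doses. GI50 is the concentration that inhibits growth by half.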 Active and inactive are the calls of the source. Cut-off read from the data, not from the text of the source: active = GI50 up to about 1.1 µM and inactive = higher.

Regarding `CCOC(=O)NC(NNc1ccc([N+](=O)[O-])cc1[N+](=O)[O-])(C(F)(F)F)C(F)(F)F`, the GI50 in the experiment on Hs-578T is 34.4 µM (inactive); in the experiment on U-251, 22 µM (inactive); in the experiment on K562, 25.1 µM (inactive); in the experiment on OVCAR-3 it was 31.6 µM (inactive); with UO-31, 21.9 µM (inactive); in the experiment with HOP-62 it was 32.9 µM (inactive). For the same compound, the GI50 in the experiment on HL-60 was 14.4 µM (inactive); in the experiment with RPMI-8226, 17.9 µM (inactive); in the experiment on EKVX it was 41.8 µM (inactive); with TK-10, 30.7 µM (inactive); with NCI-H226 it was 36 µM (inactive); in the experiment on RXF 393 it was 27.8 µM (inactive). The GI50 with HT-29 was 32.3 µM (inactive); in the experiment with UACC-257, 43.1 µM (inactive); in the experiment with M14 it was 65.2 µM (inactive); in the experiment with OVCAR-5, 46 µM (inactive); in the experiment with LOX IMVI it was 60.1 µM (inactive); in the experiment with SK-MEL-2, 47 µM (inactive). In addition, the GI50 in the experiment on IGROV-1 was 54.8 µM (inactive); with SK-OV-3, 23.4 µM (inactive).
As for `CC1=C(C(=O)NCCCN(CCO)CCO)CC(C(=O)NCCCN(CCO)CCO)=C(C)N1`, the GI50 with Hs-578T was 29.1 µM (inactive); with U-251, > 100 µM (inactive); in the experiment on K562, > 100 µM (inactive); with OVCAR-3, > 100 µM (inactive); with UO-31 it was 93.5 µM (inactive); with HOP-62, > 100 µM (inactive). Besides, the GI50 in the experiment on HL-60 was > 100 µM (inactive); in the experiment with RPMI-8226, 76 µM (inactive); with EKVX, > 100 µM (inactive); with TK-10, > 100 µM (inactive); with NCI-H226 it was > 100 µM (inactive); in the experiment on RXF 393, 26.4 µM (inactive). Moreover, the GI50 in the experiment with HT-29, with UACC-257, with M14, in the experiment with OVCAR-5, with LOX IMVI and with SK-MEL-2 was > 100 µM (inactive) in each case. For the same compound, the GI50 in the experiment on IGROV-1 and in the experiment with SK-OV-3 was > 100 µM (inactive) each time.
As for `Cc1ccc(Cl)c2c1NC(=O)/C2=N\Nc1ccccc1[N+](=O)[O-]`, the GI50 in the experiment with Hs-578T was 22.4 µM (inactive); with U-251 it was 31.6 µM (inactive); with K562 it was 39.4 µM (inactive); with OVCAR-3 it was 27.3 µM (inactive); in the experiment with UO-31 it was 34.8 µM (inactive); with HOP-62, 56.1 µM (inactive). The GI50 with HL-60 is 25.5 µM (inactive); with RPMI-8226, 52.8 µM (inactive); in the experiment with EKVX, 40.2 µM (inactive); with TK-10, > 100 µM (inactive); in the experiment with NCI-H226 it was > 100 µM (inactive); in the experiment with RXF 393 it was > 100 µM (inactive). Also, the GI50 with HT-29 is 35.8 µM (inactive); with UACC-257 it was 82.2 µM (inactive); in the experiment with M14 it was 42.6 µM (inactive); in the experiment with OVCAR-5, > 100 µM (inactive); with LOX IMVI, 25.6 µM (inactive); with SK-MEL-2 it was > 100 µM (inactive). Besides, the GI50 in the experiment on IGROV-1 is 6.53 µM (inactive); in the experiment with SK-OV-3 it was > 100 µM (inactive).
Regarding `COc1ccc(C(=O)NC2=C(Cl)C(=O)c3ccccc3C2=O)cc1`, the GI50 in the experiment with Hs-578T was 3.08 µM (inactive); in the experiment on U-251, 0.977 µM (active); with K562, 1.36 µM (inactive); in the experiment on OVCAR-3 it was 1.14 µM (inactive); in the experiment on UO-31 it was 1.9 µM (inactive); in the experiment with HOP-62 it was 18 µM (inactive). Besides, the GI50 is 0.336 µM (active) in the experiment on HL-60; 0.579 µM (active) with RPMI-8226; 5.3 µM (inactive) in the experiment with EKVX; 3.22 µM (inactive) in the experiment on TK-10; 1.82 µM (inactive) with NCI-H226; 0.995 µM (active) in the experiment with RXF 393. Moreover, the GI50 in the experiment on HT-29 is 4.41 µM (inactive); in the experiment on UACC-257, 1.71 µM (inactive); with M14 it was 1.05 µM (active); with OVCAR-5, 2.7 µM (inactive); with LOX IMVI, 2.3 µM (inactive); in the experiment with SK-MEL-2, 1.02 µM (active). Also, the GI50 with IGROV-1 is 2.52 µM (inactive); with SK-OV-3, 2.23 µM (inactive).
Turning to `COc1cc(O)c(/C=N/N=C(\N)NO)c(OC)c1`, the GI50 is > 10 µM (inactive) in the experiment with Hs-578T; > 10 µM (inactive) in the experiment with U-251; > 10 µM (inactive) in the experiment on K562; 5.5 µM (inactive) in the experiment with OVCAR-3; > 10 µM (inactive) in the experiment with UO-31; 9.93 µM (inactive) in the experiment with HOP-62. The GI50 was > 10 µM (inactive) in the experiment with HL-60; > 10 µM (inactive) in the experiment with RPMI-8226; > 10 µM (inactive) in the experiment on EKVX; > 10 µM (inactive) with TK-10; 5.11 µM (inactive) with NCI-H226; 8.3 µM (inactive) with RXF 393. Also, the GI50 with HT-29 was 6.31 µM (inactive); in the experiment on UACC-257, > 10 µM (inactive); in the experiment on M14, > 10 µM (inactive); in the experiment on OVCAR-5 it was > 10 µM (inactive); in the experiment on LOX IMVI, 7.6 µM (inactive); with SK-MEL-2, > 10 µM (inactive). For the same compound, the GI50 with IGROV-1 and in the experiment with SK-OV-3 was > 10 µM (inactive) in each case.
For `O=C(/C=N/O)c1c(-c2ccccc2)[nH]c(-c2ccccc2)c1-c1ccccc1`, the GI50 in the experiment with Hs-578T is 20.9 µM (inactive); in the experiment on U-251 it was 14.5 µM (inactive); with K562, 14.1 µM (inactive); with OVCAR-3 it was 13.1 µM (inactive); in the experiment on UO-31, 14.3 µM (inactive); in the experiment with HOP-62, 44.4 µM (inactive). Moreover, the GI50 is 5.98 µM (inactive) with HL-60; 5.35 µM (inactive) in the experiment on RPMI-8226; 3.71 µM (inactive) in the experiment on EKVX; 21.3 µM (inactive) with TK-10; 26.2 µM (inactive) with NCI-H226; 12.5 µM (inactive) with RXF 393. In addition, the GI50 in the experiment with HT-29 was 21.9 µM (inactive); with UACC-257, 16.2 µM (inactive); with M14 it was 31 µM (inactive); in the experiment with OVCAR-5 it was 0.228 µM (active); with LOX IMVI, 10.8 µM (inactive); in the experiment with SK-MEL-2, 11.1 µM (inactive). For the same compound, the results for the GI50 in the experiment on IGROV-1 and in the experiment on SK-OV-3 were 13.8 µM (inactive) and 16.1 µM (inactive), respectively.
For `CN(N)/N=N/c1[nH]cnc1C(N)=O`, the GI50 was 37.5 µM (inactive) in the experiment on Hs-578T; > 66.1 µM (inactive) in the experiment with U-251; 1.92 µM (inactive) with K562; 17.5 µM (inactive) in the experiment on OVCAR-3; 4 µM (inactive) in the experiment with UO-31; 48.9 µM (inactive) in the experiment on HOP-62. Besides, the GI50 in the experiment on HL-60 is 0.531 µM (active); with RPMI-8226, 3.36 µM (inactive); in the experiment on EKVX it was 36.1 µM (inactive); in the experiment on TK-10, 7.67 µM (inactive); in the experiment with NCI-H226, 23.4 µM (inactive); with RXF 393 it was > 100 µM (inactive). For the same compound, the GI50 is 99.8 µM (inactive) with HT-29; 54.2 µM (inactive) in the experiment on UACC-257; 3.01 µM (inactive) with M14; > 89.7 µM (inactive) in the experiment on OVCAR-5; 1.65 µM (inactive) in the experiment with LOX IMVI; 4.79 µM (inactive) with SK-MEL-2. Moreover, the GI50 is 9.93 µM (inactive) in the experiment with IGROV-1 and 3.33 µM (inactive) with SK-OV-3.
Take `COc1ccc(N2C(=O)C3c4[nH]c5ccc(C)cc5c4C4CCC(c5ccccc5)CC4C3C2=O)cc1` (stereo not given): the GI50 is 6.84 µM (inactive) in the experiment on Hs-578T; 12.9 µM (inactive) in the experiment with U-251; 25.8 µM (inactive) in the experiment on K562; > 100 µM (inactive) in the experiment with OVCAR-3; > 89.5 µM (inactive) with UO-31; 7.05 µM (inactive) with HOP-62. Also, the GI50 in the experiment with HL-60 is 12.8 µM (inactive); in the experiment with RPMI-8226 it was > 82.8 µM (inactive); in the experiment on EKVX it was > 64.3 µM (inactive); in the experiment on TK-10, 28.6 µM (inactive); with NCI-H226, > 100 µM (inactive); in the experiment with RXF 393, 12.6 µM (inactive). Also, the GI50 in the experiment on HT-29 is > 100 µM (inactive); in the experiment on UACC-257, > 100 µM (inactive); in the experiment on M14, 47.1 µM (inactive); in the experiment on OVCAR-5, > 100 µM (inactive); in the experiment with LOX IMVI, > 57.3 µM (inactive); in the experiment on SK-MEL-2, 28.5 µM (inactive). Further, the GI50 in the experiment with IGROV-1 is > 51.3 µM (inactive); in the experiment with SK-OV-3 it was 18.9 µM (inactive).
As for `C[C@@H]1[C@@H](c2ccccc2)O[B-](c2ccccc2)(c2ccccc2)[N+]1(C)C`, the GI50 in the experiment on Hs-578T was 54.2 µM (inactive); in the experiment on U-251 it was > 100 µM (inactive); in the experiment with K562, 33 µM (inactive); in the experiment with OVCAR-3, 70.5 µM (inactive); with UO-31, 22.7 µM (inactive); in the experiment on HOP-62, > 100 µM (inactive). In addition, the GI50 was 66.1 µM (inactive) in the experiment on HL-60; 58.9 µM (inactive) with RPMI-8226; > 100 µM (inactive) in the experiment with EKVX; 54.7 µM (inactive) with TK-10; 41 µM (inactive) in the experiment with NCI-H226; 34.7 µM (inactive) in the experiment with RXF 393. The GI50 was > 100 µM (inactive) with HT-29; > 100 µM (inactive) in the experiment with UACC-257; 34.5 µM (inactive) in the experiment with M14; > 100 µM (inactive) in the experiment with OVCAR-5; > 100 µM (inactive) in the experiment with LOX IMVI; > 100 µM (inactive) in the experiment with SK-MEL-2. Besides, the GI50 with IGROV-1 was 96.8 µM (inactive); in the experiment on SK-OV-3, > 100 µM (inactive).
Turning to `c1ccc([P+](CCCCCCCC[P+](c2ccccc2)(c2ccccc2)c2ccccc2)(c2ccccc2)c2ccccc2)cc1`, the GI50 was 2.06 µM (inactive) in the experiment with Hs-578T; 0.22 µM (active) in the experiment on U-251; 3.6 µM (inactive) with K562; 3.83 µM (inactive) with OVCAR-3; > 100 µM (inactive) with UO-31; 3.64 µM (inactive) in the experiment on HOP-62. The GI50 in the experiment on HL-60 was 1.03 µM (active); in the experiment on RPMI-8226, 1.87 µM (inactive); with EKVX it was > 61.5 µM (inactive); with TK-10, 18 µM (inactive); in the experiment on NCI-H226 it was 3.61 µM (inactive); in the experiment with RXF 393, 31.6 µM (inactive). The GI50 in the experiment with HT-29 is 2.04 µM (inactive); in the experiment on UACC-257 it was 0.92 µM (active); with M14 it was 35.6 µM (inactive); in the experiment with OVCAR-5, 11.2 µM (inactive); with LOX IMVI it was 4.2 µM (inactive); with SK-MEL-2 it was 5.69 µM (inactive). Moreover, the GI50 in the experiment on IGROV-1 was 2.4 µM (inactive); with SK-OV-3, 17.3 µM (inactive).
